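Dose response: 5 concentrations. Exposure: 48 h. Format: 96-well plates. Endpoint: linear interpolation; highest concentration if not reached. GI50 marks 50% less growth. The concentration for full growth arrest is given as TGI.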 Some results are limits rather than exact numbers.

Among the test systems are HCC-2998 colon; HCT-15 colon; HS 578T breast; SK-MEL-28 melanoma; RXF 393 renal; PC-3 prostate; HT29 colon; M14 melanoma; MOLT-4 leukemia; UACC-62 melanoma.
Holding throughout (test): growth of human tumour cells (NCI), 48 h

With `O=C(NCCCCCN1CCC2(CCCCC2)CC1)C(C1CCCCC1)C1CCCCC1`, the TGI in the assay on HCC-2998 colon was 2.57 µM; with HCT-15 colon, 12.2 µM; in the assay with HS 578T breast, 9.59 µM; in the assay with SK-MEL-28 melanoma, 3.64 µM; in the assay with RXF 393 renal, 8.92 µM; in the assay with PC-3 prostate, 8.17 µM. For the same compound, the TGI in the assay with HT29 colon is 4.62 µM; in the assay on M14 melanoma, 3.23 µM; in the assay with MOLT-4 leukemia, 4.87 µM; in the assay on UACC-62 melanoma, 7.2 µM.

In the case of `O=P(O)(O)CN1CCNCCN(CP(=O)(O)O)CC1`, the TGI in the assay on HCC-2998 colon, in the assay on HCT-15 colon, with HS 578T breast, in the assay on SK-MEL-28 melanoma, in the assay with RXF 393 renal and with PC-3 prostate was over 100 µM throughout. Further, the TGI in the assay with HT29 colon, with M14 melanoma, with MOLT-4 leukemia and in the assay on UACC-62 melanoma was over 100 µM throughout.

As for `COc1ccc(C2=NC(c3ccc(Cl)cc3)C(c3ccc(Cl)cc3)N2C(=O)N2CCNC(=O)C2)c(OC(C)C)c1` (stereo not given), the GI50 with HCC-2998 colon was 2.3 µM; with HCT-15 colon, 1.91 µM; with HS 578T breast, 2.65 µM; in the assay with SK-MEL-28 melanoma, 3.24 µM; with RXF 393 renal, 3.6 µM; with PC-3 prostate it was 2.26 µM. The GI50 was 3.27 µM with HT29 colon, 1.84 µM in the assay with M14 melanoma, 3.39 µM with MOLT-4 leukemia and 1.9 µM in the assay with UACC-62 melanoma. Further, the TGI with HCC-2998 colon was 5.57 µM; with HCT-15 colon, 3.86 µM; in the assay with HS 578T breast, 6.45 µM; in the assay on SK-MEL-28 melanoma it was 7.62 µM; in the assay with RXF 393 renal, 6.84 µM; with PC-3 prostate, 4.79 µM. Also, the TGI with HT29 colon was over 10 µM; in the assay on M14 melanoma it was 3.31 µM; in the assay with MOLT-4 leukemia, over 10 µM; in the assay on UACC-62 melanoma it was 3.4 µM.

`O=c1cc(N2CCCC2)[nH]c(=O)n1-c1ccc(Cl)cc1`: the TGI in the assay on HCC-2998 colon, in the assay on HCT-15 colon, in the assay on HS 578T breast, in the assay with SK-MEL-28 melanoma, with RXF 393 renal and with PC-3 prostate was over 100 µM in each case. The TGI with HT29 colon, in the assay with M14 melanoma, with MOLT-4 leukemia and in the assay on UACC-62 melanoma was over 100 µM in each case.

On to `Cc1ccc(NC(=O)CC(=O)n2nc(C)c(N=Nc3cccc(C)c3)c2C)cc1`, for which the TGI in the assay on HCC-2998 colon, in the assay with HCT-15 colon, in the assay with HS 578T breast, in the assay on SK-MEL-28 melanoma, in the assay with RXF 393 renal and in the assay on PC-3 prostate was over 100 µM each time. Further, the TGI in the assay on HT29 colon, with M14 melanoma, in the assay on MOLT-4 leukemia and with UACC-62 melanoma was over 100 µM each time.

On to `C=CC[C@H](N=C(SC)SC)C(=O)N1C(=O)N(C)[C@@H](C)[C@H]1c1ccccc1`, for which the TGI is 92.2 µM in the assay with HCC-2998 colon; over 100 µM with HCT-15 colon; over 100 µM in the assay with HS 578T breast; over 100 µM in the assay on SK-MEL-28 melanoma; over 100 µM in the assay on RXF 393 renal; over 100 µM in the assay on PC-3 prostate. Further, the TGI in the assay with HT29 colon, with M14 melanoma, with MOLT-4 leukemia and in the assay on UACC-62 melanoma was over 100 µM in each case.

Regarding `NS(=O)(=O)c1ccc(N=Nc2ccc(O)c(C(=O)O)c2)cc1`, the TGI in the assay with HCC-2998 colon, in the assay on HCT-15 colon, in the assay on HS 578T breast, with SK-MEL-28 melanoma, in the assay on RXF 393 renal and in the assay on PC-3 prostate was over 100 µM each time. For the same compound, the TGI in the assay on HT29 colon, with M14 melanoma, in the assay on MOLT-4 leukemia and with UACC-62 melanoma was over 100 µM each time.

As for `CCOC(=O)c1cc(Br)c(-c2cc(C)co2)[nH]1`, the TGI with HCC-2998 colon, in the assay with HCT-15 colon, in the assay with HS 578T breast, in the assay on SK-MEL-28 melanoma, in the assay on RXF 393 renal and with PC-3 prostate was over 100 µM throughout. The TGI with HT29 colon, with M14 melanoma, in the assay with MOLT-4 leukemia and in the assay with UACC-62 melanoma was over 100 µM each time.

Turning to `CC(C)=NOC(=O)Nc1cccc2c1OCO2`, the TGI in the assay with HCC-2998 colon, in the assay with HCT-15 colon, in the assay on HS 578T breast, with SK-MEL-28 melanoma, with RXF 393 renal and with PC-3 prostate was over 100 µM in each case. For the same compound, the TGI in the assay on HT29 colon, in the assay on M14 melanoma, with MOLT-4 leukemia and with UACC-62 melanoma was over 100 µM each time.

Take `CC1(C)CC(=O)C2=C(C1)OC1(CC2c2ccc(Cl)cc2)CC(c2ccc(Cl)cc2)C2=C(CC(C)(C)CC2=O)O1` (stereo not given): the TGI with HCC-2998 colon is 38.5 µM; with HCT-15 colon, over 100 µM; with HS 578T breast, 36.1 µM; in the assay on SK-MEL-28 melanoma, 34 µM; in the assay on RXF 393 renal, 94.3 µM; in the assay with PC-3 prostate, over 65.9 µM. For the same compound, the TGI was over 100 µM in the assay on HT29 colon, over 52.1 µM with M14 melanoma, 13.6 µM in the assay with MOLT-4 leukemia and over 53.5 µM with UACC-62 melanoma.

With `O=S(=O)(O)c1ccc2c(N=Nc3ccc(Sc4ccc(N=Nc5c(O)ccc6cc(S(=O)(=O)O)ccc56)cc4)cc3)c(O)ccc2c1`, the TGI in the assay with HCC-2998 colon, in the assay with HCT-15 colon, with HS 578T breast, in the assay on SK-MEL-28 melanoma, with RXF 393 renal and with PC-3 prostate was over 100 µM each time. Further, the TGI with HT29 colon, in the assay on M14 melanoma, with MOLT-4 leukemia and in the assay with UACC-62 melanoma was over 100 µM throughout.

Regarding `CC[C@@]1(O)C(=O)OCc2c1cc1n(c2=O)Cc2c-1nc1ccccc1c2/C=N\NC(=O)C(N)Cc1c[nH]c2ccccc12` (stereo not given in full), the TGI is over 65.7 µM with HCC-2998 colon; over 100 µM in the assay on HCT-15 colon; over 100 µM with HS 578T breast; over 100 µM with SK-MEL-28 melanoma; 1.21 µM in the assay on RXF 393 renal; over 100 µM in the assay with PC-3 prostate. Further, the TGI in the assay with HT29 colon is over 100 µM; in the assay on M14 melanoma, 8.77 µM; in the assay with MOLT-4 leukemia, 1.18 µM; in the assay on UACC-62 melanoma, 0.712 µM.

Take `CC(C)NC(=O)OCc1c(COC(=O)NC(C)C)c(-c2cc[n+](COC(=O)C3CCCCC3)cc2)n2c1CCC2`: the TGI in the assay with HCC-2998 colon, with HCT-15 colon, in the assay with HS 578T breast, in the assay with SK-MEL-28 melanoma, in the assay with RXF 393 renal and with PC-3 prostate was over 100 µM each time. In addition, the TGI in the assay on HT29 colon, in the assay on M14 melanoma, with MOLT-4 leukemia and in the assay with UACC-62 melanoma was over 100 µM in each case.

On to `O=C(N/N=C\c1ccc([N+](=O)[O-])s1)c1ccncc1`, for which the TGI is 24 µM with HCC-2998 colon; over 44 µM in the assay with HCT-15 colon; 50.4 µM in the assay on HS 578T breast; over 64.9 µM in the assay with SK-MEL-28 melanoma; 56.6 µM in the assay on RXF 393 renal; over 76.8 µM in the assay on PC-3 prostate. The TGI in the assay with HT29 colon is 15.9 µM; in the assay on M14 melanoma it was 25.2 µM; in the assay on MOLT-4 leukemia, over 63.2 µM; in the assay on UACC-62 melanoma, 15.7 µM.

As for `Cc1ccc(/C=C2\N=C(N3CCCC(CO)C3)NC2=O)cc1` (stereo not given), the TGI in the assay with HCC-2998 colon, in the assay on HCT-15 colon, in the assay on HS 578T breast, in the assay on SK-MEL-28 melanoma, in the assay with RXF 393 renal and in the assay on PC-3 prostate was over 100 µM throughout. The TGI in the assay on HT29 colon, with M14 melanoma, in the assay with MOLT-4 leukemia and in the assay with UACC-62 melanoma was over 100 µM each time.

For the compound `CCCCCCCCCCCCO[P+](=O)OCCCCCCCCCCCC`, the TGI with HCC-2998 colon, with HCT-15 colon, in the assay with HS 578T breast, with SK-MEL-28 melanoma, in the assay on RXF 393 renal and in the assay with PC-3 prostate was over 100 µM in each case. For the same compound, the TGI in the assay on HT29 colon, in the assay with M14 melanoma, in the assay with MOLT-4 leukemia and in the assay on UACC-62 melanoma was over 100 µM in each case.

As for `CCOC(=O)C1=C(C)N(Cc2ccccc2)C2(O)C=CC(=O)C3=C(O)c4ccccc4C(=O)C312` (stereo not given), the TGI was 31.1 µM with HCC-2998 colon; 22 µM in the assay on HCT-15 colon; 97.7 µM in the assay on HS 578T breast; over 100 µM in the assay with SK-MEL-28 melanoma; 19.7 µM in the assay on RXF 393 renal; over 100 µM in the assay on PC-3 prostate. The TGI in the assay with HT29 colon is over 100 µM; in the assay on M14 melanoma it was 16.3 µM; with MOLT-4 leukemia it was over 100 µM; in the assay with UACC-62 melanoma, 31.1 µM.

On to `C[C@H](CCC(=O)NCC(=O)O)[C@H]1CC[C@H]2[C@@H]3[C@H](O)C[C@@H]4C[C@H](O)CC[C@]4(C)[C@H]3CC[C@]12C`, for which the TGI in the assay with HCC-2998 colon, with HCT-15 colon, with HS 578T breast, with SK-MEL-28 melanoma, in the assay on RXF 393 renal and in the assay with PC-3 prostate was over 100 µM each time. In addition, the TGI in the assay with HT29 colon, in the assay on M14 melanoma, in the assay on MOLT-4 leukemia and with UACC-62 melanoma was over 100 µM in each case.

In the case of `C=C1CC2[C@H](C)C(=O)CCC2(C)C2=C1C1CCC(C(C)CCC(=C)C(C)C(=O)O)C1(C)CC2=O` (stereo not given in full), the TGI in the assay with HCC-2998 colon was over 100 µM; in the assay on HCT-15 colon, over 100 µM; in the assay with HS 578T breast, over 100 µM; with SK-MEL-28 melanoma, over 100 µM; with RXF 393 renal, 86.4 µM; in the assay with PC-3 prostate it was over 100 µM. Moreover, the TGI was over 100 µM with HT29 colon, over 100 µM in the assay on M14 melanoma, 63.1 µM in the assay with MOLT-4 leukemia and over 100 µM in the assay on UACC-62 melanoma.

For the compound `CN1CCN([C@H]2C[C@H]3[C@@H]4CC=C5C[C@@H](O)CC[C@]5(C)[C@H]4CC[C@]3(C)[C@H]2O)CC1`, the TGI is over 100 µM in the assay on HCC-2998 colon; over 59.2 µM in the assay on HCT-15 colon; over 100 µM with HS 578T breast; over 57.3 µM in the assay with SK-MEL-28 melanoma; 51.9 µM in the assay with RXF 393 renal; over 86.6 µM in the assay with PC-3 prostate. For the same compound, the TGI in the assay with HT29 colon is 28.6 µM; with M14 melanoma it was 33.9 µM; in the assay on MOLT-4 leukemia, over 82.5 µM; in the assay on UACC-62 melanoma, over 60.5 µM.

Turning to `C=C1C(=O)OC2C3OC(C)(CCC(O)C3COC(C)=O)CC(OC(=O)/C(=C/C)COC(C)=O)C12` (stereo not given), the TGI was 2.59 µM in the assay with HCC-2998 colon; 0.141 µM in the assay with HCT-15 colon; 31.3 µM with HS 578T breast; 0.431 µM in the assay on SK-MEL-28 melanoma; 0.515 µM with RXF 393 renal; 4.49 µM in the assay with PC-3 prostate. For the same compound, the TGI in the assay with HT29 colon came to 0.521 µM; with M14 melanoma, 1.01 µM; in the assay on MOLT-4 leukemia, 0.389 µM; in the assay on UACC-62 melanoma it was 0.971 µM.

Values taken from PubChem BioAssay (NCI).
